Results taken from ChEMBL document CHEMBL1799924, “Synthesis and activities of naphthalimide azoles as a new type of antibacterial and antifungal agents” (2011).
≈ marks a conversion by molar mass, not a printed value.

Assays:
[1] = system: Candida albicans; experiment: Antifungal activity against Candida albicans ATCC 76615 by microbroth dilution method; format: functional
[2] = system: Candida; experiment: Antifungal activity against Candida mycoderma by microbroth dilution method; format: functional
[3] = system: Staphylococcus aureus; experiment: Antibacterial activity against Staphylococcus aureus ATCC 25923 by microbroth dilution method; format: functional
[4] = system: Staphylococcus aureus; experiment: Antibacterial activity against methicillin-resistant Staphylococcus aureus N 315 by microbroth dilution method; format: functional
[5] = system: Bacillus subtilis; experiment: Antibacterial activity against Bacillus subtilis ATCC 6633 by microbroth dilution method; format: functional
[6] = system: Micrococcus luteus; experiment: Antibacterial activity against Micrococcus luteus by microbroth dilution method; format: functional
[7] = system: Bacillus; experiment: Antibacterial activity against Bacillus proteus by microbroth dilution method; format: functional
[8] = system: Escherichia coli; experiment: Antibacterial activity against Escherichia coli JM 109 by microbroth dilution method; format: functional
[9] = system: Pseudomonas aeruginosa; experiment: Antibacterial activity against Pseudomonas aeruginosa by microbroth dilution method; format: functional
[10] = system: Salmonella typhi; experiment: Antibacterial activity against Bacillus typhi by microbroth dilution method; format: functional, Salmonella enterica subsp. enterica serovar Typhi; details: Salmonella enterica

SMILES	MIC [1] [µg/mL]	MIC [2] [µg/mL]	MIC [3] [µg/mL]	MIC [4] [µg/mL]	MIC [5] [µg/mL]	MIC [6] [µg/mL]	MIC [7] [µg/mL]	MIC [8] [µg/mL]	MIC [9] [µg/mL]	MIC [10] [µg/mL]
O=C1c2cccc3c(Br)ccc(c23)C(=O)N1CCCCCCn1cc[n+](Cc2ccc(F)cc2F)c1.[Br-]	32	32	16	16	16	32	32	32	64	32
O=C(N[C@H](CO)[C@H](O)c1ccc([N+](=O)[O-])cc1)C(Cl)Cl [CHLORAMPHENICOL]	–	–	2 (≈ 6.19 µM)	4 (≈ 12.4 µM)	4 (≈ 12.4 µM)	8 (≈ 24.8 µM)	2 (≈ 6.19 µM)	8 (≈ 24.8 µM)	16 (≈ 49.5 µM)	8 (≈ 24.8 µM)
O=C1c2cccc3c(Br)ccc(c23)C(=O)N1CCCCCn1c[n+](Cc2ccc(F)cc2F)cn1.[Br-]	16	16	32	16	32	16	32	8	2	16
O=C1c2cccc3c(Br)ccc(c23)C(=O)N1CCCCCn1cc[n+](Cc2ccc(F)cc2F)c1.[Br-]	16	16	16	8	16	4	4	16	16	16
O=C1c2cccc3c(Br)ccc(c23)C(=O)N1CCCn1ccnc1	64 (≈ 167 µM)	64 (≈ 167 µM)	16 (≈ 41.6 µM)	16 (≈ 41.6 µM)	16 (≈ 41.6 µM)	16 (≈ 41.6 µM)	16 (≈ 41.6 µM)	16 (≈ 41.6 µM)	32 (≈ 83.3 µM)	16 (≈ 41.6 µM)
O=C1c2cccc3c(Br)ccc(c23)C(=O)N1CCCCCn1ccnc1	128 (≈ 310 µM)	64 (≈ 155 µM)	64 (≈ 155 µM)	128 (≈ 310 µM)	64 (≈ 155 µM)	64 (≈ 155 µM)	32 (≈ 77.6 µM)	32 (≈ 77.6 µM)	64 (≈ 155 µM)	128 (≈ 310 µM)
O=C1c2cccc3c(Br)ccc(c23)C(=O)N1CCCn1c[n+](Cc2ccc([N+](=O)[O-])cc2)cn1.[Br-]	32	16	32	16	32	32	16	16	32	32
OC(Cn1cncn1)(Cn1cncn1)c1ccc(F)cc1F [FLUCONAZOLE]	1 (≈ 3.27 µM)	4 (≈ 13.1 µM)	–	–	–	–	–	–	–	–
O=C1c2cccc3c(Br)ccc(c23)C(=O)N1CCCCCCn1c[n+](Cc2ccc(F)cc2F)cn1.[Br-]	32	64	16	32	16	32	32	32	8	16
O=C1c2cccc3c(Br)ccc(c23)C(=O)N1CCCn1c[n+](Cc2ccc(Cl)cc2)cn1.[Br-]	16	16	32	8	16	8	16	8	8	16
O=C1c2cccc3c(Br)ccc(c23)C(=O)N1CCCn1c[n+](Cc2ccc(F)cc2F)cn1.[Br-]	8	4	16	4	4	8	8	4	1	4
O=C1c2cccc3c(Br)ccc(c23)C(=O)N1CCCn1c[n+](Cc2ccc(Cl)c(Cl)c2)cn1.[Br-]	16	16	16	16	32	16	32	16	16	16
C[C@@H]1CN(c2c(F)c(F)c3c(=O)c(C(=O)O)cn(C4CC4)c3c2F)C[C@H](C)N1 [ORBIFLOXACIN]	–	–	2 (≈ 5.06 µM)	1 (≈ 2.53 µM)	2 (≈ 5.06 µM)	1 (≈ 2.53 µM)	4 (≈ 10.1 µM)	1 (≈ 2.53 µM)	1 (≈ 2.53 µM)	1 (≈ 2.53 µM)
O=C1c2cccc3c(Br)ccc(c23)C(=O)N1CCCCn1cncn1	> 512	> 512	> 512	> 512	> 512	> 512	256 (≈ 641 µM)	> 512	256 (≈ 641 µM)	> 512
O=C1c2cccc3c(Br)ccc(c23)C(=O)N1CCCCCCn1cncn1	> 512	> 512	> 512	> 512	> 512	> 512	> 512	> 512	> 512	> 512
O=C1c2cccc3c(Br)ccc(c23)C(=O)N1CCCn1c[n+](Cc2ccccc2Cl)cn1.[Br-]	8	32	16	16	32	16	32	16	16	32
O=C1c2cccc3c(Br)ccc(c23)C(=O)N1CCCCCCn1ccnc1	32 (≈ 75.1 µM)	32 (≈ 75.1 µM)	64 (≈ 150 µM)	64 (≈ 150 µM)	16 (≈ 37.5 µM)	128 (≈ 300 µM)	16 (≈ 37.5 µM)	64 (≈ 150 µM)	128 (≈ 300 µM)	32 (≈ 75.1 µM)
O=C1c2cccc3c(Br)ccc(c23)C(=O)N1CCCn1c[n+](Cc2ccc(Cl)cc2Cl)cn1.[Br-]	8	8	16	16	8	8	4	4	4	16
O=C1c2cccc3c(Br)ccc(c23)C(=O)N1CCCCn1c[n+](Cc2ccc(F)cc2F)cn1.[Br-]	16	32	16	16	16	16	16	8	2	8
O=C1c2cccc3c(Br)ccc(c23)C(=O)N1CCCn1cncn1	256 (≈ 665 µM)	256 (≈ 665 µM)	> 512	> 512	256 (≈ 665 µM)	> 512	256 (≈ 665 µM)	> 512	256 (≈ 665 µM)	> 512
O=C1c2cccc3c(Br)ccc(c23)C(=O)N1CCCn1cc[n+](Cc2ccc(F)cc2F)c1.[Br-]	32	32	4	4	8	8	8	8	8	8
O=C1c2cccc3c(Br)ccc(c23)C(=O)N1CCCCn1ccnc1	64 (≈ 161 µM)	32 (≈ 80.3 µM)	16 (≈ 40.2 µM)	16 (≈ 40.2 µM)	32 (≈ 80.3 µM)	16 (≈ 40.2 µM)	16 (≈ 40.2 µM)	8 (≈ 20.1 µM)	16 (≈ 40.2 µM)	16 (≈ 40.2 µM)
O=C1c2cccc3c(Br)ccc(c23)C(=O)N1CCCCCn1cncn1	> 512	> 512	> 512	> 512	> 512	> 512	> 512	> 512	256 (≈ 619 µM)	> 512
O=C1c2cccc3c(Br)ccc(c23)C(=O)N1CCCCn1cc[n+](Cc2ccc(F)cc2F)c1.[Br-]	32	16	8	2	8	8	16	8	16	8
